Data reported in patent US9938249B2, “Anti-amyloid compounds containing benzofurazan” (Treventis Corporation, priority 2014, dated 2018).

Key:
Aβ40 = Aβ40 (Homo sapiens, UniProt P05067); experiment: ThT Aβ aggregation assay (kinetic Thioflavin T fluorescence); type: biochemical; conditions: 20 μM Aβ, DMSO control at 80 hr = 0% inhibition, number in parenthesis = compound ID 1027 in that experiment; for inhibition at 10 µM: compound 10 μM, read-out: % inhib Thioflavin T Aβ 40 10 μM; for inhibition at 5 µM: 80 h, compound 5 μm (so in the source), read-out: % inhib Thioflavin T Aβ 40 (5 μm)
Protocol: Preparation of Aβ40 Stock Solutions
Aβ40 (1.0 mg) was pre-treated in a 1.5 mL microfuge tube with HFIP (1 mL) and sonicated for 20 min to disassemble any pre-formed Aβ aggregates. The HFIP was removed with a stream of argon and the Aβ dissolved in Tris base (5.8 mL, 20 mM, pH ˜10). The pH was adjusted to 7.4 with concentrated HCl (˜10 μL) and the solution filtered using a syringe filter (0.2 μm) before being used.
The kinetic ThT assay for Aβ aggregation is similar to that of Chalifour et al (Chalifour et al, 2003, J. Biol. Chem. 278:34874-81). Briefly, pre-treated Aβ40 or Aβ42 (40 μM in 20 mM Tris, pH 7.4) was diluted with an equal volume of 8 μM Thioflavin T (ThT) in Tris (20 mM, pH 7.4, 300 mM NaCl). Aliquots of Aβ/ThT (200 μL) were added to wells of a black polystyrene 96-well plate, followed by 2 μL of a compound in DMSO (variable concentration), or DMSO alone (controls). Incubations were performed in triplicate and were taken to contain 20 μM Aβ, various concentration of compound in 20 mM Tris, pH 7.4, 150 mM NaCl, 1% DMSO. Plates were covered with clear polystyrene lids and incubated at 37° C. in a Tecan Genios microplate reader.
Analysis of ThT and ThS Aggregation Assays
Fluorescence readings (λex=450 nm, λem=480 nm) were taken every 15 min., after first shaking at high intensity for 15 s and allowing to settle for 10 s before each reading. Active compounds attenuated the increase in fluorescence over time that occurred in controls. In FIGS. 1-7, the time this procedure was performed extended to 80 hours (rightmost part of X-axis), at which point fluorescence increase generally reached an asymptote. Applying a definition of DMSO control at 80 hr as 100% aggregation (0% inhibition) and DMSO control at 0 hr as 0% aggregation (100% inhibition), a % inhibition score where higher is better can be calculated for a given concentration of compound. By repeating this procedure over several concentrations, a […] (IC50) can be measured, as is given in the table below for some compounds.

[1] = biological target: Terminally biotinylated beta-amyloid (Aβ42) (Homo sapiens, UniProt P05067); experiment: Aβ42 biotinylated (biotin-AB) oligomerization assay, NeutrAvidin capture ELISA; type: biochemical; conditions: approximate value; 1 hr oligomerization at room temperature; read-out: IC50 Aβ 42-bio
How it was run: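 Biotin-Aβ42, pretreated with HFIP/TFA to remove seeds, oligomerized 1 h at room temperature with compound in 20 mM sodium phosphate pH 7.5, 150 mM NaCl (DMSO up to 1%). Oligomers captured on NeutrAvidin plates, detected with streptavidin-HRP/TMB at 450 nm; IC50 approximate, in µM.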

Chain of Aβ40 (P05067 672-711, species assumed): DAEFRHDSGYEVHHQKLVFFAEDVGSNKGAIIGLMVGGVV
Chain of Terminally biotinylated beta-amyloid (Aβ42) (P05067 672-713, species assumed): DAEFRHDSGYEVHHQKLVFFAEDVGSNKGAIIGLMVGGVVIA

SMILES	inhibition at 10 µM (Aβ40) [%]	IC50 [1] [nM]	inhibition at 5 µM (Aβ40) [%]
Cc1ccc(-c2cc(N3CC(CN4CCCC4)C3)c3nonc3c2)c2ccccc12 [compound 1494]	45	2010	
OC(c1ccc(-c2cc(N3CC(CN4CCCC4)C3)c3nonc3c2)s1)C(F)(F)F (stereo not drawn) [compound 1543]	84	1100	63
O=C(C1CN(c2cc(Br)cc3nonc23)C1)N1CCCC1 [compound 1497]	65	> 20000	
CS(=O)(=O)c1ccc(-c2cc(N3CC(CN4CCCC4)C3)c3nonc3c2)cc1 [compound 1501]	48	> 20000	
CCN(CC)C(=O)c1cc(N2CC(CN3CCCC3)C2)c2nonc2c1 [compound 1540]	50	1800	41
